Source: PubChem BioAssay AID1963844 (Molecular Pharmacology Branch, DTP, NCI, 2024)

Tested on: 422866-222-R5-J1-PDC complex spheroid viability
Experiment: Anticancer human tumor 422866-222-R5-J1-PDC patient-derived pancreatic adenocarcinoma cell line growth inhibition [POLQ]
Conditions: for IC50: curve of first compound; for viability, T/C: stronger effect = lower value
Experimental: Multicellular complex tumor spheroid response to Polymerase (POL) inhibitors (novobiocin, ART-558, RP6685) in combination with a variety of drugs and investigational agents in selected tumor cell lines
The POL inhibitors (novobiocin, ART-558, and RP6685) were evaluated both individually and in combination with standard of care and investigational anticancer small molecules within a complex spheroid model of solid tumors. . Complex spheroids include a stromal component modeled by human endothelial cells (HUVEC) and fibroblasts modeled by human mesenchymal stem cells (MSCs). The concentration ranges selected for each drug and investigational agent were based upon clinically achievable concentrations if the clinical Cmax of the agent was known.
Compounds. The drugs and investigational agents: novobiocin (NSC847541), ART-558 (NSC835418), RP-6685 (NSC848927), peposertib (NSC802822), ceralasertib (NSC780249), elimusertib (NSC800525), camonsertib (NSC841442), AZD-1390 (NSC803789), olaparib (NSC753686), talazoparib (NSC767125), rucaparib (NSC756644), sotorasib (NSC818433), MRTX-1133 (NSC836407), SN-38 (NSC673596), topotecan (NSC609699), epotoside (NSC141540), doxorubicin (NSC123127), gemcitabine (NSC613327), 5-fluorouracil (NSC19893), paclitaxel (NSC125973), vemurafenib (NSC761431), MSA-2 (NSC828583), SN-011 (NSC837082), adavosertib (NSC754352), prexasertib (NSC758257), carboplatin (NSC241240) and oxaliplatin (NSC266046), were obtained from the National Cancer Institute (NCI) Developmental Therapeutics Program Chemical Repository (21). The FDA-approved anticancer drug set is available from the Developmental Therapeutics Program at https://dtp.cancer.gov/organization/dscb/obtaining/. […] The stock solutions were prepared in dimethyl sulfoxide (DMSO, Sigma-Aldrich, St. Louis, MO, cat. D2650), except for the platinum compounds which were prepared in saline (Quality Biological, Gaithersburg, MD, cat. 114-055-101), at 800-fold the tested concentration and stored at -70 degrees C prior to their use. All drugs and investigational agents were tested over a range starting from a high concentration at or near the clinical Cmax and decreasing in half-log increments. If the clinical Cmax for an agent had not been determined, the highest concentration tested was 10 microM, except for SN-38, which was tested at a high concentration of 1 microM.
Cell Culture. All cells were maintained in an incubator at 37 degrees C and 5% CO2 with 95% humidity. The PDC lines were cultured according to standard operating procedures established by the NCI PDMR (https://pdmr.cancer.gov). Table 3 of the manuscript, lists the cell lines along with the number of the three cell types plated to form the mct-spheroids and media for tumor cell growth. After thawing, all PDC lines, except 997537-175-T-J1-PDC and 415267-285-R-J2-PDC, were cultured in Matrigel-coated flasks prepared with a working solution of 1X Ham's F-12 nutrient mix, without supplementation (Thermo Fisher Scientific, cat. 11765054), 100 U/mL penicillin-streptomycin (Thermo Fisher Scientific, cat. 15140122), and 2.5% Matrigel (Corning Inc., Corning, NY, cat. 354248) for the first three passages. The two PDC lines 997537-175-T-J1-PDC and 415267-285-R-J2-PDC were cultured on uncoated flasks. The 857933-349-R-J2-PDC line was cultured in 6C/Colon 1B media containing advanced DMEM/F-12 (Thermo Fisher Scientific, cat. 12634028), 10 mM HEPES (Thermo Fisher Scientific, cat. 15630080), 1X GlutaMAX supplement (Thermo Fisher Scientific, cat. 35050061), 0.1 mg/mL primocin (InvivoGen, San Diego, CA, cat. ant-pm-2), 10% defined fetal bovine serum, heat inactivated (HyClone Laboratories Inc., Logan, UT, cat. SH30070.03HI), 50% L-WRN conditioned media (ATCC, cat. CRL-3276), 1.25 mM N-Acetyl-L-cysteine (Sigma-Aldrich, cat. A9165), 10 mM nicotinamide (Sigma-Aldrich, cat. N0636), 1X B-27 supplement (Thermo Fisher Scientific, cat. 17504044), 1X N-2 supplement (Thermo Fisher Scientific, cat. […]

[1] = second compound 0.0316 µM, first compound 0.0316 µM
[2] = second compound 0.0316 µM, first compound 0.1 µM
[3] = second compound 0.0316 µM, first compound 0.316 µM
[4] = second compound 0.0316 µM, first compound 1 µM
[5] = second compound 0.0316 µM, first compound 3.16 µM
[6] = second compound 0.0316 µM, first compound 10 µM
[7] = second compound 0.1 µM, first compound 0.0316 µM
[8] = second compound 0.1 µM, first compound 0.1 µM
[9] = second compound 0.1 µM, first compound 0.316 µM
[10] = second compound 0.1 µM, first compound 1 µM
[11] = second compound 0.1 µM, first compound 3.16 µM
[12] = second compound 0.1 µM, first compound 10 µM
[13] = second compound 0.316 µM, first compound 0.0316 µM
[14] = second compound 0.316 µM, first compound 0.1 µM
[15] = second compound 0.316 µM, first compound 0.316 µM
[16] = second compound 0.316 µM, first compound 1 µM
[17] = second compound 0.316 µM, first compound 3.16 µM
[18] = second compound 0.316 µM, first compound 10 µM
[19] = second compound 1 µM, first compound 0.0316 µM
[20] = second compound 1 µM, first compound 0.1 µM
[21] = second compound 1 µM, first compound 0.316 µM
[22] = second compound 1 µM, first compound 1 µM
[23] = second compound 1 µM, first compound 3.16 µM
[24] = second compound 1 µM, first compound 10 µM
[25] = second compound 3.16 µM, first compound 0.0316 µM
[26] = second compound 3.16 µM, first compound 0.1 µM
[27] = second compound 3.16 µM, first compound 0.316 µM
[28] = second compound 3.16 µM, first compound 1 µM
[29] = second compound 3.16 µM, first compound 3.16 µM
[30] = second compound 3.16 µM, first compound 10 µM
[31] = second compound 10 µM, first compound 0.0316 µM
[32] = second compound 10 µM, first compound 0.1 µM
[33] = second compound 10 µM, first compound 0.316 µM
[34] = second compound 10 µM, first compound 1 µM
[35] = second compound 10 µM, first compound 3.16 µM
[36] = second compound 10 µM, first compound 10 µM
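Note: spheroids exposed to compounds for one week before readout.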
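Throughout, for viability, T/C: percent of DMSO vehicle wells luminescence so 100% = untreated viability.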

Work on `COc1cc(C2c3cc4c(cc3C(OC3OC5COC(C)OC5C(O)C3O)C3COC(=O)C23)OCO4)cc(OC)c1O` (centres undefined) + COC1C(OC(N)=O)C(O)C(Oc2ccc3c(O)c(NC(=O)c4ccc(O)c(CC=C(C)C)c4)c(=O)oc3c2C)OC1(C)C yielded an IC50 (second compound 0.0316 µM) of 1330 nM, an IC50 (second compound 0.1 µM) of 966 nM and an IC50 (second compound 0.316 µM) of 770 nM. The IC50 (second compound 1 µM) was 1070 nM, the IC50 (second compound 3.16 µM) was 854 nM and the IC50 (second compound 10 µM) was 715 nM. The viability, T/C [1] was 97.7%, the viability, T/C [2] was 95% and the viability, T/C [3] was 72.5%. The viability, T/C [4] was 51.3%, the viability, T/C [5] was 45.4% and the viability, T/C [6] was 31.5%. The viability, T/C [7] was 103%, the viability, T/C [8] was 94.7% and the viability, T/C [9] was 73.5%. It also gave a viability, T/C [10] of 49.3%, a viability, T/C [11] of 38.2% and a viability, T/C [12] of 36.4%. The viability, T/C [13] was 101%, the viability, T/C [14] was 98.6% and the viability, T/C [15] was 61.8%. It also gave a viability, T/C [16] of 51.4%, a viability, T/C [17] of 35.7% and a viability, T/C [18] of 34.9%. The viability, T/C [19] was 109%, the viability, T/C [20] was 93.2% and the viability, T/C [21] was 85.5%. It also gave a viability, T/C [22] of 48.3%, a viability, T/C [23] of 38% and a viability, T/C [24] of 32.7%. It also gave a viability, T/C [25] of 87.2%, a viability, T/C [26] of 88.3% and a viability, T/C [27] of 82.4%. The viability, T/C [28] was 44.8%, the viability, T/C [29] was 39.4% and the viability, T/C [30] was 35.5%. It also gave a viability, T/C [31] of 96.1%, a viability, T/C [32] of 101% and a viability, T/C [33] of 64.4%. For the same compound, the viability, T/C [34] was 51%, the viability, T/C [35] was 41.3% and the viability, T/C [36] was 36.7%.
Compound `COc1cccc2c1C(=O)c1c(O)c3c(c(O)c1C2=O)CC(O)(C(=O)CO)CC3OC1CC(N)C(O)C(C)O1` (centres undefined) + COC1C(OC(N)=O)C(O)C(Oc2ccc3c(O)c(NC(=O)c4ccc(O)c(CC=C(C)C)c4)c(=O)oc3c2C)OC1(C)C has an IC50 (second compound 0.0316 µM) of 242 nM, an IC50 (second compound 0.1 µM) of 225 nM and an IC50 (second compound 0.316 µM) of 236 nM. It also gave an IC50 (second compound 1 µM) of 250 nM, an IC50 (second compound 3.16 µM) of 217 nM and an IC50 (second compound 10 µM) of 224 nM. The viability, T/C [1] was 60.2%, the viability, T/C [2] was 110% and the viability, T/C [3] was 39.3%. It also gave a viability, T/C [4] of 29.7%, a viability, T/C [5] of 30% and a viability, T/C [6] of 35.5%. The viability, T/C [7] was 75.5%, the viability, T/C [8] was 94.4% and the viability, T/C [9] was 35.4%. The viability, T/C [10] was 25.3%, the viability, T/C [11] was 28.9% and the viability, T/C [12] was 33.3%. The viability, T/C [13] was 67.5%, the viability, T/C [14] was 102% and the viability, T/C [15] was 38.1%. It also gave a viability, T/C [16] of 26.9%, a viability, T/C [17] of 26.9% and a viability, T/C [18] of 30.9%. The viability, T/C [19] was 71.2%, the viability, T/C [20] was 104% and the viability, T/C [21] was 40.3%. The viability, T/C [22] was 21.8%, the viability, T/C [23] was 26.9% and the viability, T/C [24] was 29.5%. For the same compound, the viability, T/C [25] was 54.5%, the viability, T/C [26] was 107% and the viability, T/C [27] was 35%. For the same compound, the viability, T/C [28] was 23.9%, the viability, T/C [29] was 25.6% and the viability, T/C [30] was 38.9%. The viability, T/C [31] was 56.1%, the viability, T/C [32] was 106% and the viability, T/C [33] was 36.8%. For the same compound, the viability, T/C [34] was 26.7%, the viability, T/C [35] was 28.9% and the viability, T/C [36] was 29.8%.
